In US11814367B2, “Inhibitors of glycogen synthase 1 (GYS1) and methods of use thereof” (Maze Therapeutics, Inc., priority 2021, dated 2023):

How the values were obtained:
[1] = biological target: hGYS1 enzyme (recombinant hGYS1/GN1 protein) (Homo sapiens (Human), UniProt P13807); experiment: GYS1 coupled enzyme assay (PK/LDH); assay type: biochemical; details: hGYS1/GN1 50 nM, UDP-Glucose 0.8 mM, G6P 1 mM; geometric mean of at least 2 runs
[2] = tested on: hGYS1 enzyme / glycogen synthesis in HeLa cells; experiment: GYS1 cell based assay (glycogen synthesis, Glucose-glo); set-up: species or system human; details: Homo sapiens, HeLa, 24 h, 24 h incubation, 20 mM glucose, geometric mean of at least 2 runs
Summary of the method: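 HeLa cells starved 24 h in medium containing only 1× Glutamax were plated onto compound in medium with 20 mM glucose (1% DMSO final) for 24 h, 37 °C, 5% CO2. Acid lysates were Tris-quenched, glucoamylase-digested (pH 5.3, 1 h, 37 °C) and read by Glucose-glo luminescence. IC50 came from Hill fits, as geometric mean of ≥2 runs.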

Sequence of hGYS1 enzyme (recombinant hGYS1/GN1 protein) (P13807 whole entry): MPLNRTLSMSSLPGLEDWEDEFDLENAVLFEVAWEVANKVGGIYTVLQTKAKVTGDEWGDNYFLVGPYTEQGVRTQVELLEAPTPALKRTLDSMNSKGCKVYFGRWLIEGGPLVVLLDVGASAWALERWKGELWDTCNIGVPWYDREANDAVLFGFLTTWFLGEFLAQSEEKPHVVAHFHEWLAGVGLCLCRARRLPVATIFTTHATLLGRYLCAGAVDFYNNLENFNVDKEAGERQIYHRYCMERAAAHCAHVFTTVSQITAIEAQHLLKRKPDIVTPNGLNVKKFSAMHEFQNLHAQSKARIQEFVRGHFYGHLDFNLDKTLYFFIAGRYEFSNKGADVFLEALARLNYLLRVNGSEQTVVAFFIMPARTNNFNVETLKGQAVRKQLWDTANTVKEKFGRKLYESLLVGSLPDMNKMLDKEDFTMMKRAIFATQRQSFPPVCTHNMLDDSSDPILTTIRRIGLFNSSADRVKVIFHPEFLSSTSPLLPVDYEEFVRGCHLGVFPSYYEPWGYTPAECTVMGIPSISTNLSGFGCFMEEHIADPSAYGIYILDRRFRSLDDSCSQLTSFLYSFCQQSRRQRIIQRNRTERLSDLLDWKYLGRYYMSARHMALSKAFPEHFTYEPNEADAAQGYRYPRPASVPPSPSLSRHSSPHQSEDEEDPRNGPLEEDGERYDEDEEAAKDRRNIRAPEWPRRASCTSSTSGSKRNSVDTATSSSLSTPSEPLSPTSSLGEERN
Sequence of hGYS1 enzyme (recombinant hGYS1/GN1 protein) (P46976 whole entry partner): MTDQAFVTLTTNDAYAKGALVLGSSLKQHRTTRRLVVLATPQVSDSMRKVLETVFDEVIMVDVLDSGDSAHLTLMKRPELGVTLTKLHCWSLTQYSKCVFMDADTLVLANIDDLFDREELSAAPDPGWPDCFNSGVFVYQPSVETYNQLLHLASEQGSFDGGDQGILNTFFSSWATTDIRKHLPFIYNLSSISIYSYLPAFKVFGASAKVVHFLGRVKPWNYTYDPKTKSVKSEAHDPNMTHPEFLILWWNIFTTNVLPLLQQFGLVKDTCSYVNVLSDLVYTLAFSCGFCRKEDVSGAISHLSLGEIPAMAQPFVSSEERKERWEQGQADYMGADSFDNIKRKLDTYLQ

| SMILES | IC50 [1] | IC50 [2] |
| --- | --- | --- |
| CCn1cc(C)cc(CC(=O)N2C[C@H](F)C[C@H]2C(=O)N[C@@H](c2ccccc2)c2ccc(C3CC3)c(F)n2)c1=O [Compound 740, (2S,4R)-N-[(S)-(5-cyclopropyl-6-fluoropyridin-2-yl)(phenyl)methyl]-1-[2-(1-ethyl-5-methyl-2-oxo-1,2-dihydropyridin-3-yl)acetyl]-4-fluoropyrrolidine-2-carboxamide] | 9 nM | 320 nM |
| CCn1cccc(CC(=O)N2C[C@H](F)C[C@H]2C(=O)N[C@@H](c2ccccc2)c2ccc(C3CC3)c(F)n2)c1=O [Compound 741, (2S,4R)-N-[(S)-(5-cyclopropyl-6-fluoropyridin-2-yl)(phenyl)methyl]-1-[2-(1-ethyl-2-oxo-1,2-dihydropyridin-3-yl)acetyl]-4-fluoropyrrolidine-2-carboxamide] | 16 nM | 710 nM |
| CCn1cc(CC(=O)N2C[C@H](F)C[C@H]2C(=O)N[C@@H](c2ccccc2)c2ccc(C3CC3)c(F)n2)ncc1=O [Compound 742, (2S,4R)-N-[(S)-(5-cyclopropyl-6-fluoropyridin-2-yl)(phenyl)methyl]-1-[2-(4-ethyl-5-oxo-4,5-dihydropyrazin-2-yl)acetyl]-4-fluoropyrrolidine-2-carboxamide] | 24 nM | 630 nM |
| COc1nc(CC(=O)N2C[C@H](F)C[C@H]2C(=O)N[C@@H](c2ccccc2)c2ccc(C3CC3)c(F)n2)nn1C [Compound 743, (2S,4R)-N-[(S)-(5-cyclopropyl-6-fluoropyridin-2-yl)(phenyl)methyl]-4-fluoro-1-[2-(5-methoxy-1-methyl-1H-1,2,4-triazol-3-yl)acetyl]pyrrolidine-2-carboxamide] | 28 nM | 480 nM |
| O=C(N[C@@H](c1ccccc1)c1ccc(C2CC2)c(F)n1)[C@@H]1C[C@@H](F)CN1C(=O)CNC(=O)N(Cc1ccccc1)C(F)(F)F [Compound 744, (2S,4R)-1-(2-{[benzyl(trifluoromethyl)carbamoyl]amino}acetyl)-N-[(S)-(5-cyclopropyl-6-fluoropyridin-2-yl)(phenyl)methyl]-4-fluoropyrrolidine-2-carboxamide] | 46 nM | 1520 nM |
| O=C(N[C@@H](c1ccccc1)c1ccc(C2CC2)c(F)n1)[C@@H]1C[C@@H](F)CN1C(=O)Cn1nncc1C(F)(F)F [Compound 745, (2S,4R)-N-[(S)-(5-cyclopropyl-6-fluoropyridin-2-yl)(phenyl)methyl]-4-fluoro-1-{2-[5-(trifluoromethyl)-1H-1,2,3-triazol-1-yl]acetyl}pyrrolidine-2-carboxamide] | 24 nM | 510 nM |
| O=C(N[C@@H](c1ccccc1)c1ccc(C2CC2)c(F)n1)[C@@H]1C[C@@H](F)CN1C(=O)Cc1c[nH]c(=O)cn1 [Compound 746, (2S,4R)-N-[(S)-(5-cyclopropyl-6-fluoropyridin-2-yl)(phenyl)methyl]-4-fluoro-1-[2-(5-oxo-4,5-dihydropyrazin-2-yl)acetyl]pyrrolidine-2-carboxamide] | 70 nM | 1620 nM |
| O=C(N[C@@H](c1ccccc1)c1ccc(C2CC2)c(F)n1)[C@@H]1C[C@@H](F)CN1C(=O)Cn1nncc1C(F)F [Compound 747, (2S,4R)-N-[(S)-(5-cyclopropyl-6-fluoropyridin-2-yl)(phenyl)methyl]-1-{2-[5-(difluoromethyl)-1H-1,2,3-triazol-1-yl]acetyl}-4-fluoropyrrolidine-2-carboxamide] | 16 nM | 420 nM |
| CCN(CC)c1cnnn1CC(=O)N1C[C@H](F)C[C@H]1C(=O)N[C@@H](c1ccccc1)c1ccc(C2CC2)c(F)n1 [Compound 748, (2S,4R)-N-[(S)-(5-cyclopropyl-6-fluoropyridin-2-yl)(phenyl)methyl]-1-{2-[5-(diethylamino)-1H-1,2,3-triazol-1-yl]acetyl}-4-fluoropyrrolidine-2-carboxamide] | 15 nM | 530 nM |
| Cn1cc(CC(=O)N2C[C@H](F)C[C@H]2C(=O)N[C@@H](c2ccccc2)c2ccc(C3CC3)c(F)n2)c(C(F)F)n1 [Compound 749, (2S,4R)-N-[(S)-(5-cyclopropyl-6-fluoropyridin-2-yl)(phenyl)methyl]-1-{2-[3-(difluoromethyl)-1-methyl-1H-pyrazol-4-yl]acetyl}-4-fluoropyrrolidine-2-carboxamide] | 6 nM | 250 nM |
| Cc1cc(C(F)F)n(CC(=O)N2C[C@H](F)C[C@H]2C(=O)N[C@@H](c2ccccc2)c2ccc(C3CC3)c(F)n2)n1 [Compound 750, (2S,4R)-N-[(S)-(5-cyclopropyl-6-fluoropyridin-2-yl)(phenyl)methyl]-1-{2-[5-(difluoromethyl)-3-methyl-1H-pyrazol-1-yl]acetyl}-4-fluoropyrrolidine-2-carboxamide] | 11 nM | 260 nM |
| Cn1ncc(CC(=O)N2C[C@H](F)C[C@H]2C(=O)N[C@@H](c2ccccc2)c2ccc(C3CC3)c(F)n2)c1C(F)F [Compound 751, (2S,4R)-N-[(S)-(5-cyclopropyl-6-fluoropyridin-2-yl)(phenyl)methyl]-1-{2-[5-(difluoromethyl)-1-methyl-1H-pyrazol-4-yl]acetyl}-4-fluoropyrrolidine-2-carboxamide] | 13 nM | 470 nM |
| Cc1cc(C(F)F)nn1CC(=O)N1C[C@H](F)C[C@H]1C(=O)N[C@@H](c1ccccc1)c1ccc(C2CC2)c(F)n1 [Compound 752, (2S,4R)-N-[(S)-(5-cyclopropyl-6-fluoropyridin-2-yl)(phenyl)methyl]-1-{2-[3-(difluoromethyl)-5-methyl-1H-pyrazol-1-yl]acetyl}-4-fluoropyrrolidine-2-carboxamide] | 21 nM | 640 nM |
| CCn1ccnc(CC(=O)N2C[C@H](F)C[C@H]2C(=O)N[C@@H](c2ccccc2)c2ccc(C3CC3)c(F)n2)c1=O [Compound 753, (2S,4R)-N-[(S)-(5-cyclopropyl-6-fluoropyridin-2-yl)(phenyl)methyl]-1-[2-(4-ethyl-3-oxo-3,4-dihydropyrazin-2-yl)acetyl]-4-fluoropyrrolidine-2-carboxamide] | 21 nM | 320 nM |
| Cn1ncc(C(F)F)c1CC(=O)N1C[C@H](F)C[C@H]1C(=O)N[C@@H](c1ccccc1)c1ccc(C2CC2)c(F)n1 [Compound 754, (2S,4R)-N-[(S)-(5-cyclopropyl-6-fluoropyridin-2-yl)(phenyl)methyl]-1-{2-[4-(difluoromethyl)-1-methyl-1H-pyrazol-5-yl]acetyl}-4-fluoropyrrolidine-2-carboxamide] | 27 nM | 420 nM |
| O=C(N[C@@H](c1ccccc1)c1ccc(C2CC2)c(F)n1)[C@@H]1C[C@@H](F)CN1C(=O)Cn1nnnc1C(F)(F)F [Compound 755, (2S,4R)-N-[(S)-(5-cyclopropyl-6-fluoropyridin-2-yl)(phenyl)methyl]-4-fluoro-1-{2-[5-(trifluoromethyl)-1H-1,2,3,4-tetrazol-1-yl]acetyl}pyrrolidine-2-carboxamide] | 102 nM | 1060 nM |
| O=C(N[C@@H](c1ccccc1)c1ccc(C2CC2)c(F)n1)[C@@H]1C[C@@H](F)CN1C(=O)Cc1[nH]nnc1C(F)F [Compound 756, (2S,4R)-N-[(S)-(5-cyclopropyl-6-fluoropyridin-2-yl)(phenyl)methyl]-1-{2-[4-(difluoromethyl)-1H-1,2,3-triazol-5-yl]acetyl}-4-fluoropyrrolidine-2-carboxamide] | 23 nM | 1700 nM |
| Cn1cc(C(F)F)c(CC(=O)N2C[C@H](F)C[C@H]2C(=O)N[C@@H](c2ccccc2)c2ccc(C3CC3)c(F)n2)n1 [Compound 757, (2S,4R)-N-[(S)-(5-cyclopropyl-6-fluoropyridin-2-yl)(phenyl)methyl]-1-{2-[4-(difluoromethyl)-1-methyl-1H-pyrazol-3-yl]acetyl}-4-fluoropyrrolidine-2-carboxamide] | 29 nM | 400 nM |
| O=C(N[C@@H](c1ccccc1)c1ccc(C2CC2)c(F)n1)[C@@H]1C[C@@H](F)CN1C(=O)Cn1nncc1N1CC(F)(F)C1 [Compound 758, (2S,4R)-N-[(S)-(5-cyclopropyl-6-fluoropyridin-2-yl)(phenyl)methyl]-1-{2-[5-(3,3-difluoroazetidin-1-yl)-1H-1,2,3-triazol-1-yl]acetyl}-4-fluoropyrrolidine-2-carboxamide] | 32 nM | 1160 nM |
| O=C(N[C@@H](c1ccccc1)c1ccc(C2CC2)c(F)n1)[C@@H]1C[C@@H](F)CN1C(=O)Cn1cnnc1C(F)F [Compound 759, (2S,4R)-N-[(S)-(5-cyclopropyl-6-fluoropyridin-2-yl)(phenyl)methyl]-1-{2-[3-(difluoromethyl)-4H-1,2,4-triazol-4-yl]acetyl}-4-fluoropyrrolidine-2-carboxamide] | 18 nM | 590 nM |
| O=C(N[C@@H](c1ccccc1)c1ccc(C2CC2)c(F)n1)[C@@H]1C[C@@H](F)CN1C(=O)Cn1nccc1C(F)(F)F [Compound 760, (2S,4R)-N-[(S)-(5-cyclopropyl-6-fluoropyridin-2-yl)(phenyl)methyl]-4-fluoro-1-{2-[5-(trifluoromethyl)-1H-pyrazol-1-yl]acetyl}pyrrolidine-2-carboxamide] | 17 nM | 370 nM |
| CC(C)c1ccc([C@@H](NC(=O)[C@@H]2C[C@@H](F)CN2C(=O)Cc2[nH]nnc2N(C)C)c2ccccc2)cc1F [Compound 775, (2S,4R)-1-{2-[4-(dimethylamino)-1H-1,2,3-triazol-5-yl]acetyl}-4-fluoro-N-[(S)-[3-fluoro-4-(propan-2-yl)phenyl](phenyl)methyl] pyrrolidine-2-carboxamide] | 1080 nM | > 17500 nM |
